Calls of active or inactive are those of the source. The calls are words filed in the database; no cut-off is given here.
Assays:
[1] = Cytotoxicity against human HOS cells; type: cell-based
[2] = biological target: C-X-C chemokine receptor type 4 (Homo sapiens) (UniProt P61073); test: Antagonist activity at CXCR4 by noncompetitive binding assay
[3] = test system: Human immunodeficiency virus 1; test: Antiviral activity against HIV1 3B infected in human HOS cells; type: functional, organism-based; conditions: Human immunodeficiency virus 1, 3B
[4] = test system: Human immunodeficiency virus 1; test: Ratio of AMD070 IC50 to compound IC50 for HIV1 3B infected in human HOS cells; type: functional

Sequence of C-X-C chemokine receptor type 4 (Homo sapiens) (P61073 whole entry): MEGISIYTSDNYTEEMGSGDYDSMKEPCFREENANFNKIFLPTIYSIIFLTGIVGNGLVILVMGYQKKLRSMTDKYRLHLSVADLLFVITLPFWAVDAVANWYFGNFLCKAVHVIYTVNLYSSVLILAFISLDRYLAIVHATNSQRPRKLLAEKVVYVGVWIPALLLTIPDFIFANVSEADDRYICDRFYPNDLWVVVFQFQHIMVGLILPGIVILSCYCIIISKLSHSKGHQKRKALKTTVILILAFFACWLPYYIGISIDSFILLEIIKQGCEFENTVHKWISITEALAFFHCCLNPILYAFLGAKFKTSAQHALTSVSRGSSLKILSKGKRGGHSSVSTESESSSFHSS

Compound	CC50 [1] [nM]	Activity [2]	IC50 [3] [nM]	Ratio IC50 [4]
CN(C)CCCc1cccc2[nH]c(CN(C)C3CCCc4cccnc43)nc12 (stereo not given)	7500	–	–	–
CN1CCN(C(=O)c2cccc3nc(CN(C)C4CCCc5cccnc54)[nH]c23)CC1 (stereo not given)	–	Active	33	–
CN(Cc1nc2cccc(C(=O)NCCN)c2[nH]1)C1CCCc2cccnc21 (stereo not given)	–	Active	27	–
CN(Cc1nc2c(CNCCc3c[nH]cn3)cccc2[nH]1)C1CCCc2cccnc21 (stereo not given)	> 20000	–	–	–
CN(Cc1nc2c(CCCN3CCCC3)cccc2[nH]1)C1CCCc2cccnc21 (stereo not given)	8200	–	–	–
CN(Cc1nc2cccc(CCCN)c2[nH]1)C1CCCc2cccnc21 (stereo not given)	–	Active	24	–
CN(Cc1nc2cccc(C(=O)N3CCNCC3)c2[nH]1)C1CCCc2cccnc21 (stereo not given)	> 20000	Active	46	–
CN(Cc1nc2ccccc2n1CCN)C1CCCc2cccnc21 (stereo not given)	> 20000	Active	197	–
CN1CCN(c2cccc3nc(CN(C)[C@@H]4CCCc5cccnc54)[nH]c23)CC1	12300	Active	6.9	–
CN(Cc1nc2cccc(N3CCN(C(=O)OC(C)(C)C)CC3)c2[nH]1)C1CCCc2cccnc21 (stereo not given)	> 10000	Active	271	–
CN(Cc1nc2ccccc2n1CCCNC(=O)C(F)(F)F)C1CCCc2cccnc21 (stereo not given)	10400	Active	243	–
NCCCCN(Cc1nc2ccccc2[nH]1)[C@H]1CCCc2cccnc21 [MAVORIXAFOR]	> 10000	Active	10	–
CN(Cc1nc2cccc(CCCN3CCCC3)c2[nH]1)C1CCCc2cccnc21 (stereo not given)	–	Active	23	–
CN(Cc1nc2ccccc2n1CCCN)C1CCCc2cccnc21 (stereo not given)	> 20000	Active	44	–
CN(Cc1nc2ccccc2n1CCCCCN)C1CCCc2cccnc21 (stereo not given)	4500	Active	228	–
CN(Cc1nc2ccccc2n1CCCNC(=N)N)C1CCCc2cccnc21 (stereo not given)	> 20000	Active	26	–
CN(Cc1nc2ccccc2[nH]1)C1CCCc2cccnc21 (stereo not given)	5300	Active	1350	–
CN(Cc1nc2cccc(CCCN3CCCCC3)c2[nH]1)C1CCCc2cccnc21 (stereo not given)	–	Active	25	–
CN(Cc1nc2cccc(C(=O)NCCCCN)c2[nH]1)C1CCCc2cccnc21 (stereo not given)	> 20000	Active	396	–

Compound	CC50 [1] [nM]	Activity [2]	IC50 [3] [nM]	Ratio IC50 [4]
CN(C)CCCn1c(CN(C)C2CCCc3cccnc32)nc2ccccc21 (stereo not given)	16800	Active	17	–
CN(Cc1nc2c(CCCN3CCCCC3)cccc2[nH]1)C1CCCc2cccnc21 (stereo not given)	8700	–	–	–
CN1CCN(C(=O)c2cccc3[nH]c(CN(C)C4CCCc5cccnc54)nc23)CC1 (stereo not given)	> 10000	–	–	–
CN(Cc1nc2cccc(CNCCc3cnc[nH]3)c2[nH]1)C1CCCc2cccnc21 (stereo not given)	–	Active	41	–
CN1CCN(c2cccc3nc(CN(C)C4CCCc5cccnc54)[nH]c23)CC1 (racemic)	14000	Active	2	10
CN(Cc1nc2c(CCCN)cccc2[nH]1)C1CCCc2cccnc21 (stereo not given)	10000	–	–	–
CN(Cc1nc2cccc(CNCCN)c2[nH]1)C1CCCc2cccnc21 (stereo not given)	> 20000	Active	540	–
CN(Cc1nc2c(N3CCNCC3)cccc2[nH]1)C1CCCc2cccnc21 (stereo not given)	> 20000	–	–	–
CN(Cc1nc2cccc(CN3CCNCC3)c2[nH]1)C1CCCc2cccnc21 (stereo not given)	–	Active	13	–
CN(Cc1nc2ccccc2n1CCCCN)C1CCCc2cccnc21 (stereo not given)	2900	Active	144	–
CN(Cc1nc2cccc(N3CCNCC3)c2[nH]1)C1CCCc2cccnc21 (stereo not given)	–	Active	6	–
CN(Cc1nc2cccc(CN)c2[nH]1)C1CCCc2cccnc21 (stereo not given)	> 20000	Active	1300	–
CN(Cc1nc2cccc(C(=O)NCCc3cnc[nH]3)c2[nH]1)C1CCCc2cccnc21 (stereo not given)	> 10000	Active	19	–
CN(Cc1nc2c(C(=O)NCCN)cccc2[nH]1)C1CCCc2cccnc21 (stereo not given)	> 10000	–	–	–
CN(C)CCCc1cccc2nc(CN(C)C3CCCc4cccnc43)[nH]c12 (stereo not given)	–	Active	22	–
CN(Cc1nc2c(CN3CCNCC3)cccc2[nH]1)C1CCCc2cccnc21 (stereo not given)	12000	–	–	–
CN(Cc1nc2cccc(C(=O)NCCCN)c2[nH]1)C1CCCc2cccnc21 (stereo not given)	> 20000	Active	134	–
CN1CCN(c2cccc3nc(CN(C)[C@H]4CCCc5cccnc54)[nH]c23)CC1	12500	Active	0.6	–

From ChEMBL document CHEMBL1155333, “Amine substituted N-(1H-benzimidazol-2ylmethyl)-5,6,7,8-tetrahydro-8-quinolinamines as CXCR4 antagonists with potent activity against HIV-1” (Bioorg Med Chem Lett, 2009)
